Assay results from patent US20240425512A1, “NITROGEN-CONTAINING HETEROCYCLIC COMPOUND, PHARMACEUTICAL COMPOSITION THEREOF AND APPLICATION THEREOF” (280 Bio, Inc., priority 2023, published 2024).
Where two headings read alike, the source gives them in different places.

Columns and labels:
[1] = system: LS513 colon cancer cell with KRAS G12D mutation; test: Proliferation inhibition on RAS cell lines measured by CTG, LS513; type: cell-based; conditions: LS513 cells, incubated for 6 days
Description: NCI-H358 is a human non-small cell lung cancer cell line with KRAS G12C mutation; AGS is a gastric cancer cell line with KRAS G12D mutation; SW620 is a colon cancer cell with KRAS G12V mutation; NCI-H460 is a non-small cell lung cancer cell with KRAS Q61H mutation; MKN1 is a wild-type gastric cancer cell with KRAS-amplified; LS513 is a colon cancer cell with KRAS G12D mutation; LoVo is a colon cancer cell with KRAS G13D mutation; NCI-H441 is a lung cancer cell with KRAS G12V mutation, and Capan-2 is a pancreatic cancer cell with KRAS G12V mutation.
(§1) The proliferation inhibitory effect of the compounds on various mutations was evaluated by determining the proliferation inhibitory activity of the compounds on these cell lines.
(§2) The assay was conducted on either 384-well plates or 96-well plates. The procedures are as follows:
(§3) The cell suspensions were added to 384- or 96-well plates (384-well plate: 50 μL; 96-well plate: 100 μL) except for peripheral wells. The plates were placed in a carbon dioxide incubator overnight. NCI-H358, AGS, NCI-H460, MKN-1, LS513, LoVo, and NCI-H441 were placed in a 5%, 370 carbon dioxide incubator overnight, and SW620 was placed in a 0%, 370 carbon dioxide incubator overnight. The HPD300 micro-dosing instrument was used to add the corresponding concentration of compound to each well (9-10 concentration gradients of compound were obtained by 3-fold dilution). Cell plates were incubated in a carbon dioxide incubator for 5-6 days. NCI-H358, AGS, NCI-H460 and MKN-1 were incubated at 5%, 37° incubator and SW620 was incubated at 0%, 370 incubator. On the day of plate measurement, the 384- or 96-well plates were first equilibrated at room temperature for 10-30 min, then CellTiter Glo reagent (384-well plate: 25 μL; 96-well plate: 100 μL) was added to the 384- or 96-well plate, shaken for 10 min away from light, and incubated for 10 min. The plates were placed into Victor NIVO or ENVIDION reader plates, and XLFit was utilized to plot the pharmacodynamic inhibition curve and calculate the IC50 value. “IC50>10 μM” is denoted by “*”, “10 μM≥IC50≥1 μM” is denoted by “**”, and “1 μM≥IC50>100 nM” is denoted by “***”, “IC50<100 nM” is denoted by “****”

[2] = system: GP2D cells; test: Proliferation inhibition on RAS cell lines measured by CTG, GP2D; type: cell-based; conditions: CellTiter Glo
Description: as §1, §2, §3

[3] = Homo sapiens, LS-513, 144 h, Table 2, CellTiter Glo, read-out: IC50 (LS513^f)
[4] = 144 h, Table 2, incubated for 6 days, read-out: IC50 (GP2D^j)
[5] = Table 3, incubated for 6 days, read-out: IC50 (GP2D^l)
[6] = Homo sapiens, LS-513, 144 h, Table 1, CellTiter Glo, read-out: IC50 (LS513^f)
[7] = Homo sapiens, LS-513, 144 h, Table 3, CellTiter Glo, read-out: IC50 (LS513^k)
[8] = 144 h, Table 3, incubated for 6 days, read-out: IC50 (GP2D^l)

N#Cc1c(N)sc2c(F)ccc(-c3c(C(F)(F)F)cc4c(N5CCCCCN5)nc(OC[C@@]56CCCN5C[C@H](F)C6)nc4c3F)c12 [Compound 48]
IC50 [1, 3]: < 100 nM

C#Cc1c(F)ccc2cc(O)cc(-c3c(C(F)(F)F)cc4c(N5CCCCCN5)nc(OC[C@@]56CCCN5C[C@H](F)C6)nc4c3F)c12 [Compound 54]
IC50 [2, 4]: 100 to 1000 nM

C#Cc1c(F)ccc2cc(O)cc(-c3ncc4c(N5CCCCCN5C(=O)OCC)nc(OC[C@@]56CCCN5C[C@H](F)C6)nc4c3F)c12 [Compound 20]
IC50 [1, 3]: 100 to 1000 nM

[2H]C([2H])(Oc1nc(N2CCCCCN2)c2cnc(-c3cc(O)cc4ccc(F)c(C#C)c34)c(F)c2n1)[C@@]12CCCN1C[C@H](F)C2 [Compound 82]
IC50 [1, 3]: < 100 nM
IC50 [2, 4]: < 100 nM

C#Cc1c(F)ccc2cc(OC(=O)NCCCCCCCC)cc(-c3ncc4c(N5CCCCCN5)nc(OC[C@@]56CCCN5C[C@H](F)C6)nc4c3F)c12 [Compound 69]
IC50 [1, 3]: < 100 nM
IC50 [2, 4]: < 100 nM

C#Cc1c(F)ccc2cc(O)cc(-c3ncc4c(N5CCCCCN5)nc(OCC5(CN6CCN(C)CC6)CC5)nc4c3F)c12 [Compound 52]
IC50 [1, 3]: 100 to 1000 nM

C#Cc1c(F)ccc2cc(N)cc(-c3c(F)cc4c(N5CCCCCN5)nc(OC[C@@]56CCCN5C[C@H](F)C6)nc4c3F)c12 [Compound 131]
IC50 ([1]; Table 3, CellTiter Glo, read-out: IC50 (LS513^k)): 100 to 1000 nM
IC50 [2, 5]: 100 to 1000 nM

C#Cc1c(F)ccc2cc(O)cc(-c3ncc4c(N5CCCCCN5C(=O)OC(C)(C)C)nc(OCC5(CN(C)C)CC5)nc4c3F)c12 [Compound 14]
IC50 [1, 6]: 100 to 1000 nM

C#Cc1c(F)ccc2cc(O)cc(-c3ncc4c(N5CCCCN5)nc(OC[C@@]56CCCN5C[C@H](F)C6)nc4c3F)c12 [Compound 16]
IC50 ([1]; Homo sapiens, LS-513, 144 h, Table 1, numeric value, read-out: IC50 (LS513^f)): 11.8 nM
IC50 [1, 6]: < 100 nM

CCc1cc2c(N3CCCCCN3)nc(OC[C@@]34CCCN3C[C@H](F)C4)nc2c(F)c1-c1ccc(F)c2sc(N)c(C#N)c12 [Compound 44]
IC50 [1, 3]: < 100 nM

C#Cc1c(F)ccc2cc(O)cc(-c3ncc4c(N5CCNCCN5)nc(OC[C@@]56CCCN5C[C@H](F)C6)nc4c3F)c12 [Compound 40]
IC50 [1, 3]: 1000 to 10000 nM

C#Cc1c(F)ccc2cc(O)cc(-c3ncc4c(N5CCCCCN5)nc(OC[C@@]56CC[C@H](c7cc(F)c(C(F)(F)F)c(F)c7)N5C[C@H](F)C6)nc4c3F)c12 [Compound 117]
IC50 [1, 7]: 100 to 1000 nM
IC50 [2, 8]: 100 to 1000 nM

C#Cc1c(F)ccc2cc(OC(=O)NCCOC)cc(-c3ncc4c(N5CCCCCN5)nc(OC[C@@]56CCCN5C[C@H](F)C6)nc4c3F)c12 [Compound 93]
IC50 [1, 7]: < 100 nM
IC50 [2, 8]: < 100 nM

CCc1c(F)ccc2cc(O)cc(N3CCc4c(nc(OC[C@@]56CCCN5C[C@H](F)C6)nc4N4CCCCCN4)C3)c12 [Compound 51]
IC50 [1, 3]: < 100 nM

C#Cc1c(F)ccc2cc(OC(=O)NCCCCCCCCCCCC)cc(-c3ncc4c(N5CCCCCN5)nc(OC[C@@]56CCCN5C[C@H](F)C6)nc4c3F)c12 [Compound 133]
IC50 [1, 7]: < 100 nM
IC50 [2, 8]: < 100 nM

Oc1cc(-c2ncc3c(N4CCCCCN4)nc(OC[C@@]45CCCN4C[C@H](F)C5)nc3c2F)c2c(F)c(F)ccc2c1 [Compound 66]
IC50 [2, 4]: < 100 nM

C#Cc1c(F)ccc2cc(O)cc(-c3ncc4c(N5CCCCCN5)nc(OCC5(CN6CCCC6)CC5)nc4c3F)c12 [Compound 53]
IC50 [1, 3]: 100 to 1000 nM

C#Cc1c(F)ccc2cc(O)cc(-c3ncc4c(N5CCCCCN5)nc(OCC5(CN6CCN(c7cc(F)c(F)c(F)c7)CC6)CC5)nc4c3F)c12 [Compound 130]
IC50 [2, 5]: 100 to 1000 nM

C#Cc1c(F)ccc2c(F)c(O)cc(-c3ncc4c(N5CCCCCN5)nc(OC[C@@]56CCCN5C[C@H](F)C6)nc4c3F)c12 [Compound 64]
IC50 [1, 3]: < 100 nM
IC50 [2, 4]: < 100 nM

C#Cc1c(F)ccc2cc(O)cc(-c3ncc4c(N5CCCCCN5)nc(OCC56CCCN5C(COc5cc(C(F)(F)F)ncn5)CC6)nc4c3F)c12 (stereo not drawn) [Compound 60]
IC50 [1, 3]: < 100 nM
IC50 [2, 4]: < 100 nM

C#Cc1c(F)ccc2cc(O)cc(-c3ncc4c(N5CCCCCN5)nc(OCC5(CN6CCC(OCC(=O)N[C@H](C(=O)N7C[C@H](O)C[C@H]7C(=O)N[C@@H](C)c7ccc(-c8scnc8C)cc7)C(C)(C)C)CC6)CC5)nc4c3F)c12 [Compound 108]
IC50 [2, 5]: < 100 nM
